Experiments:
Capan-1 (K-Ras G12V) = assay: CellTiter-Glo cell viability assay, 5-day treatment; type: cell-based; conditions: Homo sapiens, CAPAN-1, 120 h, 5-day treatment; read-out: Capan-1 Cell Viability assay data (K-Ras G12V, IC50)
Outline: (§1)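 Seeded cells received test compound by direct dispensing. On day 5 the plates sat at room temperature approximately 30 minutes, then luminescence was measured. Data were normalized to DMSO and curve-fitted with four parameters.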

NCI-H358 (K-Ras G12C) = assay: as above; type: cell-based; conditions: Homo sapiens, NCI-H358, 120 h, 5-day treatment; read-out: H358 Cell Viability assay data (K-Ras G12C, IC50)
Outline: as §1

KRAS G12C = KRAS G12C (Homo sapiens, UniProt P01116+P62937, G12C); assay: Disruption of BRAF RBD interaction with Ras (FRET / MOA assay, with Cyclophilin A); type: biochemical; conditions: read-out: KRAS G12C FRET data, IC50
Chain of KRAS G12C (P01116 1-169 isoform P01116-2 G12C): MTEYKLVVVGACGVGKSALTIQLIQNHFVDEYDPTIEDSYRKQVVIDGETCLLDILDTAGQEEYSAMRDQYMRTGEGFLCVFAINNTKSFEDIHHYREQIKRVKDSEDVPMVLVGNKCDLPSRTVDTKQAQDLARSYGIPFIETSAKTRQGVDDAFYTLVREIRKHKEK
Chain of KRAS G12C (P62937 whole entry): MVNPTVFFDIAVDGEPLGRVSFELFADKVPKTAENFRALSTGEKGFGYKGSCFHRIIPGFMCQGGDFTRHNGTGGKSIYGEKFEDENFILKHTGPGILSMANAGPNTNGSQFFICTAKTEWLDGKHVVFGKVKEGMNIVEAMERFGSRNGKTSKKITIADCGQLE
Outline: (§2)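 First, compounds at a ten-point threefold dilution series (highest final concentration 30 μM) were incubated with nucleotide-loaded K-Ras, Cyclophilin A and BRAF RBD for 3 h at 25 °C. Next, detection antibodies were added for 1.5 h. Finally, IC50 was calculated from TR-FRET ratio decreases against DMSO controls.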

KRAS G12D = KRAS G12D (Homo sapiens, UniProt P01116+P62937, G12D); assay: as above; type: biochemical; conditions: read-out: KRAS G12D FRET data, IC50
Chain of KRAS G12D (P01116 1-169 isoform P01116-2 G12D limits assumed): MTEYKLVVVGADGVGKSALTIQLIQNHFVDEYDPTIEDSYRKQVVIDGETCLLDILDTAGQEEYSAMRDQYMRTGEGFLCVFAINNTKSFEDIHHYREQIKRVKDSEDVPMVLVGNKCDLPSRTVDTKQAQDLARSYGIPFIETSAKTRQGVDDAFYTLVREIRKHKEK
Chain of KRAS G12D (P62937 whole entry): as the sequence (P62937 whole entry) above
Outline: as §2

KRAS G12S = KRAS G12S (Homo sapiens, UniProt P01116+P62937, G12S); assay: as above; type: biochemical; conditions: read-out: KRAS G12S FRET data, IC50
Chain of KRAS G12S (P01116 1-169 isoform P01116-2 G12S limits assumed): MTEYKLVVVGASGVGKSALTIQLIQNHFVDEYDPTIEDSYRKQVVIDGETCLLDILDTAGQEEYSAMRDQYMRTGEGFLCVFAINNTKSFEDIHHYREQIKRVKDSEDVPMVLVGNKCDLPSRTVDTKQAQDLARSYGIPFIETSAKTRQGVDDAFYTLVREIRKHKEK
Chain of KRAS G12S (P62937 whole entry): as the sequence (P62937 whole entry) above
Outline: as §2

KRAS G12V = KRAS G12V (Homo sapiens, UniProt P01116+P62937, G12V); assay: as above; type: biochemical; conditions: KRAS G12V; read-out: KRAS G12V FRET data IC50
Chain of KRAS G12V (P01116 1-169 isoform P01116-2 G12V limits assumed): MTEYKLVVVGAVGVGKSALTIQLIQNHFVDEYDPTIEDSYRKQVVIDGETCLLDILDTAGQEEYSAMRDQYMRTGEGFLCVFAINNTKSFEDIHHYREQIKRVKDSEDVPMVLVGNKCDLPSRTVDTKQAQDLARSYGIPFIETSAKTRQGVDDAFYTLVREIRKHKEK
Chain of KRAS G12V (P62937 whole entry): as the sequence (P62937 whole entry) above
Outline: as §2

KRAS G13C = KRAS G13C (Homo sapiens, UniProt P01116+P62937, G13C); assay: as above; type: biochemical; conditions: read-out: KRAS G13C FRET data, IC50
Chain of KRAS G13C (P01116 1-169 isoform P01116-2 G13C): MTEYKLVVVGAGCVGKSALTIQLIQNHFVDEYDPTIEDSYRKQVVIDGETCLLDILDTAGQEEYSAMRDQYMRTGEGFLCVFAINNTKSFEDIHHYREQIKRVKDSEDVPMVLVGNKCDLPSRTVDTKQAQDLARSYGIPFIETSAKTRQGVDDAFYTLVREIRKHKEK
Chain of KRAS G13C (P62937 whole entry): as the sequence (P62937 whole entry) above
Outline: as §2

KRAS G13D = KRAS G13D (Homo sapiens, UniProt P01116+P62937, G13D); assay: as above; type: biochemical; conditions: KRAS G13D; read-out: KRAS G13D FRET data IC50
Chain of KRAS G13D (P01116 1-169 isoform P01116-2 G13D limits assumed): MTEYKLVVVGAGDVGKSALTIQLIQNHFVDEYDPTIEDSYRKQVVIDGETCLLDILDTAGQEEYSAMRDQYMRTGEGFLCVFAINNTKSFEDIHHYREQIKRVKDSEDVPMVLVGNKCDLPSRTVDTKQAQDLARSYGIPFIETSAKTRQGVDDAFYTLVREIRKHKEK
Chain of KRAS G13D (P62937 whole entry): as the sequence (P62937 whole entry) above
Outline: as §2

KRAS WT = KRAS WT (Homo sapiens, UniProt P01116+P62937); assay: as above; type: biochemical; conditions: KRAS WT; read-out: KRAS WT FRET data IC50
Chain of KRAS WT (P01116 1-169 isoform P01116-2 limits assumed): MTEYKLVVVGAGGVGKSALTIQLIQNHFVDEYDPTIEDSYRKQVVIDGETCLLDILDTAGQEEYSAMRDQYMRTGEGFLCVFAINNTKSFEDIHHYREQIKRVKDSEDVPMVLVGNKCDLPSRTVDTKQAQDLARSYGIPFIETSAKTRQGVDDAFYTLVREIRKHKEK
Chain of KRAS WT (P62937 whole entry): as the sequence (P62937 whole entry) above
Outline: as §2

NRAS G12C = NRAS G12C (Homo sapiens, UniProt P01111+P62937, G12C); assay: as above; type: biochemical; conditions: NRAS G12C; read-out: NRAS G12C FRET data IC50
Chain of NRAS G12C (P01111 whole entry G12C): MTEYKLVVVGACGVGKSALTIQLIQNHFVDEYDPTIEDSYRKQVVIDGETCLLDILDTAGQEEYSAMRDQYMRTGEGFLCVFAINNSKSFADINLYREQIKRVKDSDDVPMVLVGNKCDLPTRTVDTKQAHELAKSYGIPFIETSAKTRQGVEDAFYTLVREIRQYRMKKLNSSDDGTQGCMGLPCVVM
Chain of NRAS G12C (P62937 whole entry): as the sequence (P62937 whole entry) above

KRAS Q61H = KRAS Q61H (Homo sapiens, UniProt P01116+P62937, Q61H); assay: as above; type: biochemical; conditions: KRAS Q61H; read-out: KRAS Q61H FRET data IC50
Chain of KRAS Q61H (P01116 1-169 isoform P01116-2 Q61H limits assumed): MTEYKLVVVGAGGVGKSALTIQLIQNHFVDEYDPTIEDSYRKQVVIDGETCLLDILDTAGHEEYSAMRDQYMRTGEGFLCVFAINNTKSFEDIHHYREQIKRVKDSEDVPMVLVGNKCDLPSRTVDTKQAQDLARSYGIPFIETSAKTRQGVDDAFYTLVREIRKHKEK
Chain of KRAS Q61H (P62937 whole entry): as the sequence (P62937 whole entry) above
Outline: (§3)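 IC50 reflects compound-driven Ras:Cyclophilin A ternary complex displacing BRAF RBD, read as lowered TR-FRET ratio relative to DMSO after Eu anti-His (10 nM) and APC anti-GST (50 nM) detection for 1.5 h. Prior incubation 3 h, 25° C, with 12.5 nM GMPPNP-loaded Ras, 50 nM BRAF RBD, 25 μM Cyclophilin A; top compound 30 μM.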

NRAS Q61K = NRAS Q61K (Homo sapiens, UniProt P01111+P62937, Q61K); assay: as above; type: biochemical; conditions: NRAS Q61K; read-out: NRAS Q61K FRET data IC50
Chain of NRAS Q61K (P01111 whole entry Q61K): as the sequence (P01111 whole entry G12C) above, with C12G, Q61K counted along it
Chain of NRAS Q61K (P62937 whole entry): as the sequence (P62937 whole entry) above
Outline: as §3

NRAS Q61R = NRAS Q61R (Homo sapiens, UniProt P01111+P62937, Q61R); assay: as above; type: biochemical; conditions: NRAS Q61R; read-out: NRAS Q61R FRET data IC50
Chain of NRAS Q61R (P01111 whole entry Q61R): as the sequence (P01111 whole entry G12C) above, with C12G, Q61R counted along it
Chain of NRAS Q61R (P62937 whole entry): as the sequence (P62937 whole entry) above
Outline: as §3

NRAS WT = NRAS WT (Homo sapiens, UniProt P01111+P62937); assay: as above; type: biochemical; conditions: NRAS WT; read-out: NRAS WT FRET data IC50
Chain of NRAS WT (P01111 whole entry): as the sequence (P01111 whole entry G12C) above, with C12G counted along it
Chain of NRAS WT (P62937 whole entry): as the sequence (P62937 whole entry) above
Outline: as §3

SMILES | IC50 (Capan-1 (K-Ras G12V)) | IC50 (NCI-H358 (K-Ras G12C)) | IC50 (KRAS G12C) | IC50 (KRAS G12D) | IC50 (KRAS G12S) | IC50 (KRAS G12V) | IC50 (KRAS G13C) | IC50 (KRAS G13D) | IC50 (KRAS WT) | IC50 (NRAS G12C) | IC50 (KRAS Q61H) | IC50 (NRAS Q61K) | IC50 (NRAS Q61R) | IC50 (NRAS WT)
CCn1c(-c2cccnc2[C@H](C)OC)c2c3cc(ccc31)-c1csc(n1)C[C@H](NC(=O)[C@H](C(C)C)N(C)C(=O)N1CCC[C@@H](CN(C)C)C1)C(=O)N1CCC[C@H](N1)C(=O)OCC(C)(C)C2 [Example A574] | 10 to 100 nM | 10 to 100 nM | 10 to 100 nM | 100 to 1000 nM | 100 to 1000 nM | 100 to 1000 nM | 100 to 1000 nM | 100 to 1000 nM | 10 to 100 nM | 10 to 100 nM | 10 to 100 nM | 10 to 100 nM | 100 to 1000 nM | 10 to 100 nM
CCn1c(-c2cccnc2[C@H](C)OC)c2c3cc(ccc31)-c1csc(n1)C[C@H](NC(=O)[C@H]1CCO1)C(=O)N1CCC[C@H](N1)C(=O)OCC(C)(C)C2 [Example A360] | 100 to 1000 nM | 100 to 1000 nM | 100 to 1000 nM | 1000 to 10000 nM | 100 to 1000 nM | 100 to 1000 nM | 100 to 1000 nM | 1000 to 10000 nM | 100 to 1000 nM | 100 to 1000 nM | 100 to 1000 nM | 100 to 1000 nM | 1000 to 10000 nM | 100 to 1000 nM
CCn1c(-c2cccnc2[C@H](C)OC)c2c3cc(ccc31)-c1csc(n1)C[C@H](NC(=O)[C@H](C(C)C)N(C)C(=O)N1CCCC13CCOCC3)C(=O)N1CCC[C@H](N1)C(=O)OCC(C)(C)C2 (atropisomer, axis not shown) [Example A520] | 10 to 100 nM | 10 to 100 nM | 100 to 1000 nM | 100 to 1000 nM | 100 to 1000 nM | 100 to 1000 nM | 100 to 1000 nM | 100 to 1000 nM | 100 to 1000 nM | 100 to 1000 nM | 10 to 100 nM | 10 to 100 nM | 10 to 100 nM | 100 to 1000 nM
CCn1c(-c2cc(C3CCN(C)CC3)cnc2[C@H](C)OC)c2c3cc(ccc31)-c1csc(n1)C[C@H](NC(=O)[C@H](C(C)C)N(C)C(=O)N1CCOCC1)C(=O)N1CCC[C@H](N1)C(=O)OCC(C)(C)C2 (atropisomer, axis not shown) [Example A505] | < 10 nM | < 10 nM | 10 to 100 nM | 100 to 1000 nM | 100 to 1000 nM | 100 to 1000 nM | 100 to 1000 nM | 100 to 1000 nM | 10 to 100 nM | 10 to 100 nM | 10 to 100 nM | 10 to 100 nM | 10 to 100 nM | 10 to 100 nM
CCn1c(-c2cccnc2[C@H](C)OC)c2c3cc(ccc31)-c1csc(n1)C[C@H](NC(=O)[C@H](C(C)C)N(C)C(=O)N1CC[C@@H](O)C1)C(=O)N1CCC[C@H](N1)C(=O)OCC(C)(C)C2 (atropisomer, axis not shown) [Example A376] | 10 to 100 nM | 10 to 100 nM | 10 to 100 nM | 100 to 1000 nM | 100 to 1000 nM | 100 to 1000 nM | 100 to 1000 nM | 100 to 1000 nM | 100 to 1000 nM | 10 to 100 nM | 10 to 100 nM | 10 to 100 nM | 100 to 1000 nM | 100 to 1000 nM

— patent US20230233569A1 (Revolution Medicines, Inc., priority 2020, published 2023)
